The values below come from patent US10526662B2, “FALZ for use as a target for therapies to treat cancer” (Sutter Bay Hospitals, priority 2013, dated 2020).

One data set deals with 1205-Lu melanoma cells. The data set is described as follows: BRAF inhibitor sensitivity of 1205-Lu cells with modulated BPTF expression. As to conditions: for reduction in sensitivity to drug on overexpression of BPTF: 1205-Lu overexpressing BPTF; for increase in sensitivity of BPTF shRNA-expressing cells to drug: 1205-Lu, vs control shRNA-expressing cells. Format: cell-based, human. As to the method: (§1) Cell viability and colony formation were performed and cell cycle analysis was performed as described using common techniques in the art. Cells were treated with varying concentrations of vemurafenib for 72 hrs or dabrafenib (Chemitek, Indianapolis, Ind.) for 48 hrs or as indicated. DMSO was used as a vehicle.

Data set [1] concerns BPTF. The data set is described as follows: qRT-PCR of BPTF expression in B16-F10 cells. Format: cell-based. As to conditions: B16-F10 murine melanoma cells, mRNA level. As to the method: (§2) mRNAs were assayed using the TaqMan Gene Expression Assays in accordance with the manufacturer's instructions (Applied Biosystems). TaqMan probes for BPTF, HPRT1, CCND2, BCL-XL, TWIST1, RAB14, CEBPB, CHI3L1, DLL3, OLIG2, PDGFRA and BCL2 were purchased from Applied Biosystems (Foster City, Calif.).
(§3) Selected shRNAs cloned into the pLKO1-vector were co-transfected into 293T cells along with expression vectors containing the GAG/POL, REV and VSVG genes. Lentiviruses were harvested 48 hrs after transfection. Sub-confluent human melanoma or glioblastoma cells were infected with each harvested lentiviruses in the presence of 8 μg/ml of polybrene, and were selected in 1 μg/ml of puromycin at 48 hrs post-infection in their respective culture medium. B16-F10 cells were transfected with BPTF shRNA1, BPTF shRNA 2 or Neg shRNA vectors and stable transformants were selected with 2 ug/ml of puromycin.
On the technique in general: Real-time PCR tracks product formation cycle by cycle.

The test system of data set [2] is B16-F10 murine melanoma cells. Nature of the data set: cDNA microarray gene expression profiling of B16-F10 clones. Format: cell-based. The text has this:
Total RNA was extracted from cells using the RNeasy kit (Qiagen, Valencia, Calif.). Ten micrograms of total RNA, along with universal mouse reference RNA (Stratagene, Santa Clara, Calif.), was converted to aminoallyl-modified cDNA by oligo(dT)-primed polymerization using SuperScript II reverse transcriptase (Invitrogen), coupled to N-hydroxysuccinimidyl esters of Cy3 or Cy5 (Amersham Pharmacia, Pittsburgh, Pa.), and then hybridized to a microarray slide as described (Haqq et al., 2005). After linear normalization, log (base 2) transformation, and supervised hierarchical clustering, the resulting cluster data table was imported into the significance analysis of microarrays software package. Delta was chosen to limit the output gene list so that 5% predicted false positives would be included.

For data set [3], the system named is BPTF. Nature of the data set: qRT-PCR of BPTF expression in 1205-Lu cells. Format: cell-based. The note with it: 1205-Lu human melanoma cells (mutant BRAF). As to the method:
as §2, §3

Data set [4] has as its system 1205-Lu human melanoma cells. The data set is described as follows: Cell cycle analysis, 1205-Lu. Format: cell-based. The note with it: vs control shRNA vector. How it is done: as §1
The test system of data set [5] is 1205-Lu human melanoma cells. The data set is described as follows: Cell survival assay, 1205-Lu. Format: cell-based. How it is done: as §1
Data set [6] deals with 1205-Lu human melanoma cells. The data set is described as follows: Colony formation assay, 1205-Lu. Format: cell-based. As to conditions: p<0.02. As to the method: as §1
Data set [7] has as its system 1205-Lu human melanoma cells. Nature of the data set: Apoptosis, 1205-Lu. Format: cell-based. As to conditions: p<0.02.
Data set [8] relates to 1205-Lu human melanoma cells. Nature of the data set: Matrigel invasion assay, 1205-Lu. Format: cell-based. As to the method:
(§4) A Matrigel assay for tumor invasion was performed using routine techniques. For B16-F10, 1205-Lu and C8161.9 cells, insert chambers were coated with 15 μl matrigel at 6 mg/ml protein, 17 μl and 7 mg/ml for C8161.9 cells and 15 μl and 5 mg/ml for 1205-Lu and U251 cell lines.

Data set [9] relates to 1205-Lu human melanoma cells. Nature of the data set: Subcutaneous tumor growth of 1205-Lu cells in nude mice. As to conditions: 1205-Lu in nude mice, vs control shRNA-expressing cells. Format: in vivo. How it is done:
(§5) All animal care was in accordance with institutional guidelines and a protocol that was approved by the University of California San Francisco Committee on Animal Research and California Pacific Medical Center Research Institute. Groups of 45-day-old female C57B1/6 (Charles River) were inoculated by tail vein injection with 30,000 B16-F10 BPTF stables cells. 1×10^6 1205-Lu cells were injected by tail vain in nude mice. For subcutaneous injection 1×10^6 1205-Lu, B16-F10, or C8161.9 cells and 2×10^6 U251 cells were injected, respectively.

Data set [10] has as its system 1205-Lu human melanoma cells. The data set is described as follows: Lung metastatic tumor burden after intravenous inoculation of 1205-Lu cells. Format: in vivo. As to conditions: nude mice. How it is done: as §5
The subject of data set [11] is BPTF. The data set is described as follows: qRT-PCR of BPTF expression in U251 cells. Format: cell-based. As to conditions: U251 human GBM cells. How it is done:
as §2, §3

Data set [12] concerns U251 human GBM cells. The data set is described as follows: Cell survival and colony formation, U251. Format: cell-based. How it is done: as §1
Data set [13] deals with U251 human GBM cells. Nature of the data set: Cell cycle analysis, U251. As to conditions: U251, p<0.01. Format: cell-based. As to the method:
as §1

Data set [14] deals with U251 human GBM cells. The data set is described as follows: Apoptosis, U251. Format: cell-based. The note with it: U251, p<0.02.
Data set [15] concerns U251 human GBM cells. Nature of the data set: Matrigel invasion assay, U251. Format: cell-based. As to the method:
as §4

For the next data set, the system named is BCL2, BCL-XL and CCND2. Nature of the data set: Expression of BCL2, BCL-XL and CCND2 in GBM cells. As to conditions: GBM cells (U251). Format: cell-based, human. How it is done:
as §2
(§6) Western blot analysis was performed. Target proteins were detected by using specific antibodies against BPTF (Bethyl Laboratories Montgomery, TX), BCL2, and GAPDH (Santa Cruz Biotechnology, Santa Cruz, Calif.), and ERK1/2, pERK1/2, CCND2, BCL-XL, p90RSK (Cell Signaling Technology, Danvers, Mass.).

Data set [16] has as its system phosphorylated ERK1/2 and p90RSK. The data set is described as follows: Western blot of phosphorylated ERK1/2 and p90RSK in GBM cells. Format: cell-based, human. The note with it: GBM cells (U251). How it is done:
as §6

The test system of data set [17] is U251 human GBM cells. Nature of the data set: Subcutaneous U251 tumor growth in nude mice. Format: in vivo. As to conditions: subcutaneous inoculation. How it is done: as §5
Setting [18] is: B16-F10 clones stably expressing shRNA vs control vector.

`CC(C)(C)c1nc(-c2cccc(NS(=O)(=O)c3c(F)cccc3F)c2F)c(-c2ccnc(N)n2)s1` [dabrafenib]: in the data set with 1205-Lu melanoma cells, the “reduction in sensitivity to drug on overexpression of BPTF” value was determined as 3.4 fold and the “increase in sensitivity of BPTF shRNA-expressing cells to drug” value is listed as 2.8 fold.

`CCCS(=O)(=O)Nc1ccc(F)c(C(=O)c2c[nH]c3ncc(-c4ccc(Cl)cc4)cc23)c1F` [vemurafenib]: in the data set on 1205-Lu melanoma cells, the “reduction in sensitivity to drug on overexpression of BPTF” value amounted to 2.5 fold and the “increase in sensitivity of BPTF shRNA-expressing cells to drug” value stood at 3.2 fold.

On to “BPTF shRNA 1: shRNA targeting BPTF, TGGCTGTGATCGGTGTCAGAATTGGTACC (SEQ ID NO:3); used for the murine cell line (listed as DNA, chemistry not fully specified)”, for which, in the data set with BPTF [1], the “BPTF expression (qRT-PCR)” value is reported as “suppressed significantly”.

For the compound “BPTF shRNA 2: shRNA targeting BPTF, GGTGATGAAGCATAATGCTGTA ATAGAAC (SEQ ID NO:4); used for the murine cell line (GGTGATGAAGCATAATGCTGTAATAGAAC; listed as DNA, chemistry not fully specified)”, the “BPTF expression (qRT-PCR)” value in the data set on BPTF [1] is “suppressed significantly”. Moreover, the “Bcl-xl and Ccnd2 expression” value in data set [2] (B16-F10, microarray, confirmed by qRT-PCR and western blot) is listed as “downregulated”. Further, in data set [2] (setting [18]), the “number of genes overexpressed” value was 1008 genes and the “number of genes with downregulated expression” value was 27 genes.

For “BPTF shRNA 3: shRNA targeting human BPTF, ATTTAGATTCATCATAAGGCG (SEQ ID NO:5) (listed as DNA, chemistry not fully specified)”, the BPTF expression result in the data set with BPTF [3] is “significant suppression”; in the data set on BPTF [11] it was “Stable suppression”. For the same compound, the cell cycle distribution result in data set [4] is “G1/G0 cell cycle arrest and a significant reduction in S-phase”; in the data set on U251 human GBM cells [13] it was “significant G1/G0 cell cycle arrest”. Besides, the cell survival entry in data set [5] was “suppression”. Moreover, the colony formation ability entry in data set [6] is listed as “suppression”. Besides, the apoptotic index entry in data set [7] is on record as “significantly increased”. Also, in data set [8], the “invasiveness into Matrigel” value is “significant decrease”. For the same compound, in data set [9], the “subcutaneous tumor cell growth” value is “considerably suppressed”. The “reduction in the metastatic tumor burden in the lungs” value in data set [10] is 66%. Moreover, the “proliferation (cell survival and colony formation)” value in the data set on U251 human GBM cells [12] is given as “significantly reduced”. For the same compound, in the data set with U251 human GBM cells [14], the apoptosis result is “induction”. In addition, in the data set on U251 human GBM cells [15], the invasiveness entry is given as “significantly reduced”. Further, in the data set with BCL2, BCL-XL and CCND2, the “expression of BCL2, BCL-XL and CCND2” value is reported as “suppression”. Further, the “phosphorylated ERK1/2 and p90RSK” value in data set [16] is recorded as “significant suppression”. Moreover, in the data set on U251 human GBM cells [17], the “U251 tumor cell growth” value is given as “highly significant reduction”.
